Columns and labels:
Test in all cases: Radiometric kinase panel
Format in all cases: biochemical
MTOR = target: T1, MTOR (Homo sapiens, UniProt P42345)
T1 construct: purchased ProQinase GmbH (Reaction Biology); host or cells: Sf9 insect cells or E. coli (not specified per kinase)
In short: (§1)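 Activity was measured radiometrically from [gamma-33P]-ATP incorporation into substrate. The kinases were recombinant human GST- or His-tagged proteins, full-length or active fragments, expressed in Sf9 or E. coli. Compound in 10% DMSO was added before the enzyme/substrate mix, which started the reaction.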

EPHA3 = target: T2, EPHA3 (Homo sapiens, UniProt P29320)
T2 construct: either as full-length or enzymatically active fragments; purchased ProQinase GmbH (Reaction Biology)
In short: as §1

EEF2K = target: T3, EEF2K (Homo sapiens, UniProt O00418)
T3 construct: either as full-length or enzymatically active fragments; purchased ProQinase GmbH (Reaction Biology)
In short: as §1

TYK2 = target: T4, TYK2 (Homo sapiens, UniProt P29597)
T4 construct: either as full-length or enzymatically active fragments; purchased ProQinase GmbH (Reaction Biology)
In short: as §1

PKCbeta2 = target: T5, PKCbeta2 (Homo sapiens, UniProt P05771)
T5 construct: either as full-length or enzymatically active fragments; purchased ProQinase GmbH (Reaction Biology)
In short: as §1

RPS6KA1 = target: T6, RPS6KA1 (Homo sapiens, UniProt Q15418)
T6 construct: purchased ProQinase GmbH (Reaction Biology)
In short: as §1

MUSK = target: T7, MUSK (Homo sapiens, UniProt O15146)
T7 construct: either as full-length or enzymatically active fragments; purchased ProQinase GmbH (Reaction Biology)
In short: as §1

S6K = target: T8, S6K (Homo sapiens, UniProt P23443)
T8 construct: either as full-length or enzymatically active fragments; purchased ProQinase GmbH (Reaction Biology); host or cells: Sf9 insect cells or E. coli (not specified per kinase)
In short: as §1

BRSK2 = target: T9, BRSK2 (Homo sapiens, UniProt Q8IWQ3)
T9 construct: either as full-length or enzymatically active fragments; purchased ProQinase GmbH (Reaction Biology)
In short: as §1

TLK1 = target: T10, TLK1 (Homo sapiens, UniProt Q9UKI8)
T10 construct: purchased ProQinase GmbH (Reaction Biology)
In short: as §1

MEK5 = target: T11, MEK5 (Homo sapiens, UniProt Q13163)
T11 construct: either as full-length or enzymatically active fragments; purchased ProQinase GmbH (Reaction Biology)
In short: as §1

JAK1 = target: T12, JAK1 (Homo sapiens, UniProt P23458)
T12 construct: purchased ProQinase GmbH (Reaction Biology)
In short: as §1

IKKepsilon = target: T13, IKKepsilon (Homo sapiens, UniProt Q14164)
T13 construct: either as full-length or enzymatically active fragments; purchased ProQinase GmbH (Reaction Biology)
In short: as §1

DAPK2 = target: T14, DAPK2 (Homo sapiens, UniProt Q9UIK4)
T14 construct: either as full-length or enzymatically active fragments; purchased ProQinase GmbH (Reaction Biology); host or cells: Sf9 insect cells or E. coli (not specified per kinase)
In short: as §1

CDK4/CycD1 = target: T15, CDK4/CycD1 (Homo sapiens, UniProt P11802)
T15 construct: either as full-length or enzymatically active fragments; purchased ProQinase GmbH (Reaction Biology); host or cells: Sf9 insect cells or E. coli (not specified per kinase)
In short: as §1

GSK3beta = target: T16, GSK3beta (Homo sapiens, UniProt P49841)
T16 construct: either as full-length or enzymatically active fragments; purchased ProQinase GmbH (Reaction Biology)
In short: as §1

RPS6KA3 = target: T17, RPS6KA3 (Homo sapiens, UniProt P51812)
T17 construct: purchased ProQinase GmbH (Reaction Biology); host or cells: Sf9 insect cells or E. coli (not specified per kinase)
In short: as §1

WNK3 = target: T18, WNK3 (Homo sapiens, UniProt Q9BYP7)
T18 construct: either as full-length or enzymatically active fragments; purchased ProQinase GmbH (Reaction Biology)
In short: as §1

NIK = target: T19, NIK (Homo sapiens, UniProt Q99558)
T19 construct: purchased ProQinase GmbH (Reaction Biology)
In short: as §1

PKMzeta = target: T20, PKMzeta (Homo sapiens, UniProt Q05513)
T20 construct: either as full-length or enzymatically active fragments; purchased ProQinase GmbH (Reaction Biology); host or cells: Sf9 insect cells or E. coli
In short: as §1

BUB1B = target: T21, BUB1B (Homo sapiens, UniProt O60566)
T21 construct: either as full-length or enzymatically active fragments; purchased ProQinase GmbH (Reaction Biology); host or cells: Sf9 insect cells or E. coli
In short: as §1

LCK = target: T22, LCK (Homo sapiens, UniProt P06239)
T22 construct: either as full-length or enzymatically active fragments; purchased ProQinase GmbH (Reaction Biology)
In short: as §1

MET = target: T23, MET (Homo sapiens, UniProt P08581)
T23 construct: purchased ProQinase GmbH (Reaction Biology); host or cells: Sf9 insect cells or E. coli (not specified per kinase)
In short: as §1

AKT1 = target: T24, AKT1 (Homo sapiens, UniProt P31749)
T24 construct: either as full-length or enzymatically active fragments; purchased ProQinase GmbH (Reaction Biology)
In short: as §1

PRKD2 = target: T25, PRKD2 (Homo sapiens, UniProt Q9BZL6)
T25 construct: either as full-length or enzymatically active fragments; purchased ProQinase GmbH (Reaction Biology); host or cells: Sf9 insect cells or E. coli
In short: as §1

BLK = target: T26, BLK (Homo sapiens, UniProt P51451)
T26 construct: purchased ProQinase GmbH (Reaction Biology)
In short: as §1

p38gamma = target: T27, p38gamma (Homo sapiens, UniProt P53778)
T27 construct: either as full-length or enzymatically active fragments; purchased ProQinase GmbH (Reaction Biology); host or cells: Sf9 insect cells or E. coli (not specified per kinase)
In short: as §1

HRI = target: T28, HRI (Homo sapiens, UniProt Q9BQI3)
T28 construct: either as full-length or enzymatically active fragments; purchased ProQinase GmbH (Reaction Biology)
In short: as §1

CAMKK2 = target: T29, CAMKK2 (Homo sapiens, UniProt Q96RR4)
T29 construct: either as full-length or enzymatically active fragments; purchased ProQinase GmbH (Reaction Biology); host or cells: Sf9 insect cells or E. coli (not specified per kinase)
In short: as §1

COT = target: T30, COT (Homo sapiens, UniProt P41279)
T30 construct: either as full-length or enzymatically active fragments; purchased ProQinase GmbH (Reaction Biology)
In short: as §1

DYRK1A = target: T31, DYRK1A (Homo sapiens, UniProt Q13627)
T31 construct: either as full-length or enzymatically active fragments; purchased ProQinase GmbH (Reaction Biology)
In short: as §1

T6 sequence (Q15418 whole entry): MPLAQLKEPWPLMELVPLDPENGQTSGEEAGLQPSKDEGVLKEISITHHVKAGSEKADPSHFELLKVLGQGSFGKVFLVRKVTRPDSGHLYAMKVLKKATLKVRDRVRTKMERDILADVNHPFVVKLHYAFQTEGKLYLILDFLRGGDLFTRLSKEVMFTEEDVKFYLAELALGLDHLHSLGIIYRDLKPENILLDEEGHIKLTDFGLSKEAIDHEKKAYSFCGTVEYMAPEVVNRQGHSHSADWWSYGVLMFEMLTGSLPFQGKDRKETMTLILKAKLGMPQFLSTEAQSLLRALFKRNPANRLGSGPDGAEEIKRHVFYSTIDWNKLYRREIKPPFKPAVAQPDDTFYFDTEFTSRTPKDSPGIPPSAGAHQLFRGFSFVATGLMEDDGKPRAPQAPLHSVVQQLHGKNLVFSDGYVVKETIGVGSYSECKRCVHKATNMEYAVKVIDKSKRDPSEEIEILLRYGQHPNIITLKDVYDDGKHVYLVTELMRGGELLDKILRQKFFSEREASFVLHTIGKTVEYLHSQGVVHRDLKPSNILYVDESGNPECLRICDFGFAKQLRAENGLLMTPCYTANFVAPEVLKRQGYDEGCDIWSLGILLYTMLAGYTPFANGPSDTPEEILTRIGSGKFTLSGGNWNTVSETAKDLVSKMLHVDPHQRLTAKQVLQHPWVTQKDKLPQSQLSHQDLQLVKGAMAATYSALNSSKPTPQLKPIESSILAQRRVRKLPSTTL
T8 sequence (P23443 whole entry, the tested form may be a part): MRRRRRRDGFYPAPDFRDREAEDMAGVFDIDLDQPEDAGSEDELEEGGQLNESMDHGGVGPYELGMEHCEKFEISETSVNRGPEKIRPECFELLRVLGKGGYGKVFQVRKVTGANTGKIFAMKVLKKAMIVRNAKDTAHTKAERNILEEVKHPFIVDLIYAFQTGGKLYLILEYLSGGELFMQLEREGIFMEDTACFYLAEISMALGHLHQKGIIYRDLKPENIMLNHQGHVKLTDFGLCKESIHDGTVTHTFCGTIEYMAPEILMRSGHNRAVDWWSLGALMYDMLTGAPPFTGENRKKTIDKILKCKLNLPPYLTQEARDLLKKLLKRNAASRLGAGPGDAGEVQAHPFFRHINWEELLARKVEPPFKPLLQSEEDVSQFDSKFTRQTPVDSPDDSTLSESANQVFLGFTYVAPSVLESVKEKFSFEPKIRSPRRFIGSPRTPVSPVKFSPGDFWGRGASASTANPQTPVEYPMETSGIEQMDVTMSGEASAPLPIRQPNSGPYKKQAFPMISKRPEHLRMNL
T18 sequence (Q9BYP7 whole entry, the tested form may be a part): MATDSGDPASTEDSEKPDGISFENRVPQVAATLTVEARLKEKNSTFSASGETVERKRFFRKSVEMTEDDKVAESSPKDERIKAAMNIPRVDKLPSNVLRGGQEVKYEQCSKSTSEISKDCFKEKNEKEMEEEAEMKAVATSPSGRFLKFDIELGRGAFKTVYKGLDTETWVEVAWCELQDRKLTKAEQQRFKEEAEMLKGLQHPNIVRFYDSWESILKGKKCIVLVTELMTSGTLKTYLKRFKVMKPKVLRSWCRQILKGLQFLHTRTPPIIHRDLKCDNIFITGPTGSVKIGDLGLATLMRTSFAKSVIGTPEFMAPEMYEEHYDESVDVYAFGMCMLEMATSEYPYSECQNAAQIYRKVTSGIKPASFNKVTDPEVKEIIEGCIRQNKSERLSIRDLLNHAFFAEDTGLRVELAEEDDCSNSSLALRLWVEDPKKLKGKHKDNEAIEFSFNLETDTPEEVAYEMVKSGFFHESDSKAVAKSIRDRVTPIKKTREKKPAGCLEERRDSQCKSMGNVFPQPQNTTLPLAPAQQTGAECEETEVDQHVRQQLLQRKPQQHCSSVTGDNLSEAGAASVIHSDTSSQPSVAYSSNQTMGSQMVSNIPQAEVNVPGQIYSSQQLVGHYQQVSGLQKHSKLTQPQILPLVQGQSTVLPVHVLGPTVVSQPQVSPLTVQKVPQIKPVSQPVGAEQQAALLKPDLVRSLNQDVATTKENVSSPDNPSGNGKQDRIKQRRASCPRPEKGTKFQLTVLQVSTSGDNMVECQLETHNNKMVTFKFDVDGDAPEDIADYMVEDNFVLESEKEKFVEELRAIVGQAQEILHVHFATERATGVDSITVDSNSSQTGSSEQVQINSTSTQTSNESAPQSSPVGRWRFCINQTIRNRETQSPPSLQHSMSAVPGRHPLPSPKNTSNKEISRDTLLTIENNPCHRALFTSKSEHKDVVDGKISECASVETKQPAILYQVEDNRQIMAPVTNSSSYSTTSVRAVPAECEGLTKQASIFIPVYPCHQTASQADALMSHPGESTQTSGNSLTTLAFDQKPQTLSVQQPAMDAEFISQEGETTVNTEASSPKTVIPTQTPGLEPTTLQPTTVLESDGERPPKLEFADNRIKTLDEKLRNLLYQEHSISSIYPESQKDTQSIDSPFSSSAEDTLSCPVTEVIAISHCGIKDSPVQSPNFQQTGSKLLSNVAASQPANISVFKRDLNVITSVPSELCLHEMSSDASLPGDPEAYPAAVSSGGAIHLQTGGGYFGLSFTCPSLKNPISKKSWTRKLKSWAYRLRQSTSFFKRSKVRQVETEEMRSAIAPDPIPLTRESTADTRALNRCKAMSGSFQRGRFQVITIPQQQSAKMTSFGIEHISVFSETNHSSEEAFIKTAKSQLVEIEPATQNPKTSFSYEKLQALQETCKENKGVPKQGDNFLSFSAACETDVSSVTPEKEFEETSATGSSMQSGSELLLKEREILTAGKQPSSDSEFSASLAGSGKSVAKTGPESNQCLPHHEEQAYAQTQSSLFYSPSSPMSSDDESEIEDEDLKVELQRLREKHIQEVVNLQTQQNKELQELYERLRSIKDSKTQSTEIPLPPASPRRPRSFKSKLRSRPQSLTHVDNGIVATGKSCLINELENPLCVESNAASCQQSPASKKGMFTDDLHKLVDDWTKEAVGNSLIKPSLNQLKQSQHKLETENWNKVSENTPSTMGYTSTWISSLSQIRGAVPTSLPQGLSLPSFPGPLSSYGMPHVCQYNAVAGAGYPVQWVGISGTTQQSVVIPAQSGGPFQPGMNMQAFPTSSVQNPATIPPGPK
T4 sequence (P29597 whole entry, the tested form may be a part): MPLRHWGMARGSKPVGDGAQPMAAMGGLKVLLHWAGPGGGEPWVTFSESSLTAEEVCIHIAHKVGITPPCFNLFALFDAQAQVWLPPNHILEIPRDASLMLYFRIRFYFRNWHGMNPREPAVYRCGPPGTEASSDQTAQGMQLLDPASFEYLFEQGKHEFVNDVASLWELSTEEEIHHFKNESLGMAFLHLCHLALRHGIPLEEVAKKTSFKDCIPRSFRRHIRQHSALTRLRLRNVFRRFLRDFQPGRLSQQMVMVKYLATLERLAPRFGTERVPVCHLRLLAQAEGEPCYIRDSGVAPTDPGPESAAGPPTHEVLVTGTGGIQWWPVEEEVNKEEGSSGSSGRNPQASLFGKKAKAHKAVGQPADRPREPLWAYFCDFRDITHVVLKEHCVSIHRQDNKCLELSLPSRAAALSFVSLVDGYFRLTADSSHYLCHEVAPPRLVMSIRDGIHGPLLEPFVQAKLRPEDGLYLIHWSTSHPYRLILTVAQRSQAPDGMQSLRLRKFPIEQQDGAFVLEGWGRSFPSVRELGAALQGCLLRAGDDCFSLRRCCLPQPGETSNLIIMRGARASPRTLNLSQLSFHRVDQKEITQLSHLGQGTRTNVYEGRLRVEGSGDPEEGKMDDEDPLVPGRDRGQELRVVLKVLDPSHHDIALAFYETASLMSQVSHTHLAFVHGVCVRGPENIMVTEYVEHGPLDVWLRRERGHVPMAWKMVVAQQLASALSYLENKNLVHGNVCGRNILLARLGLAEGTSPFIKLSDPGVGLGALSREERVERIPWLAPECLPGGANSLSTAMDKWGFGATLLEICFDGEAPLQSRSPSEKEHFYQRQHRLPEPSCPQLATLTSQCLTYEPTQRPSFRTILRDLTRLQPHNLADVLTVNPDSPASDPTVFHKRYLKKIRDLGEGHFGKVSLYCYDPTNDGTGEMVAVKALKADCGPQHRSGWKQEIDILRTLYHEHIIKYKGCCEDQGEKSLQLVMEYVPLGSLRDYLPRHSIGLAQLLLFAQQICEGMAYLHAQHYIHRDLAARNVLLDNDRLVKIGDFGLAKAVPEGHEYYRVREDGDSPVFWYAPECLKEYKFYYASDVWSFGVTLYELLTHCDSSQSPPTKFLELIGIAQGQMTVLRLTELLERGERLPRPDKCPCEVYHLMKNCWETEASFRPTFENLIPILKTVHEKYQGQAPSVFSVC
T22 sequence (P06239 whole entry, the tested form may be a part): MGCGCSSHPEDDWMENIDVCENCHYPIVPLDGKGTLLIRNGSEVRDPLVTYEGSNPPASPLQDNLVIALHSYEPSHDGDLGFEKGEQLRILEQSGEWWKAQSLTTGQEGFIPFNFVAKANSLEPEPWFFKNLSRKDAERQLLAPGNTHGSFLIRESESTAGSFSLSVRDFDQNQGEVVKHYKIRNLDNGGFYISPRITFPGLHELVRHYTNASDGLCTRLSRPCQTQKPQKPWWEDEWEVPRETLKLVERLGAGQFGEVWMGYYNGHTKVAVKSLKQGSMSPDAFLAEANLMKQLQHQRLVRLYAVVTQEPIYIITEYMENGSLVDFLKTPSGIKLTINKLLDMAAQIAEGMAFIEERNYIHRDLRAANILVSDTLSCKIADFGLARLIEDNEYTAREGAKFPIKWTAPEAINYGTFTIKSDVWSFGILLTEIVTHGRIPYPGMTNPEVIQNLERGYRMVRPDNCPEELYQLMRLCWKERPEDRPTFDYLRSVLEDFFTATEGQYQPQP

`C=CC(=O)Nc1ccc(C(=O)N2CC[C@@H](Nc3ncc(C#N)cn3)C2)cc1` [Compound 4, (R)-N-(4-(3-((5-cyanopyrimidin-2-yl)amino)pyrrolidine-1-carbonyl)phenyl)acrylamide] was tested. Which inhibition at 1 µM (MTOR) did it give?
Its inhibition at 1 µM is 1%.

And the inhibition at 1 µM (EPHA3)?
The inhibition at 1 µM was 6%.

What about the inhibition at 1 µM (EEF2K) of the same compound?
The inhibition at 1 µM was 15%.

What about the inhibition at 1 µM (TYK2) of the same compound?
Its inhibition at 1 µM is 6%.

What about the inhibition at 1 µM (PKCbeta2) of the same compound?
Its inhibition at 1 µM is 7%.

What about the inhibition at 1 µM (RPS6KA1) of the same compound?
The inhibition at 1 µM was -1%.

And the inhibition at 1 µM (MUSK)?
Its inhibition at 1 µM is 7%.

What about the inhibition at 1 µM (S6K) of the same compound?
The inhibition at 1 µM was 9%.

What about the inhibition at 1 µM (BRSK2) of the same compound?
Its inhibition at 1 µM is -10%.

What about the inhibition at 1 µM (TLK1) of the same compound?
The inhibition at 1 µM was -1%.

And the inhibition at 1 µM (MEK5)?
The inhibition at 1 µM was 23%.

What about the inhibition at 1 µM (JAK1) of the same compound?
The inhibition at 1 µM was -1%.

What about the inhibition at 1 µM (IKKepsilon) of the same compound?
Its inhibition at 1 µM is 7%.

What about the inhibition at 1 µM (DAPK2) of the same compound?
Its inhibition at 1 µM is 9%.

And the inhibition at 1 µM (CDK4/CycD1)?
The inhibition at 1 µM was 9%.

And the inhibition at 1 µM (GSK3beta)?
The inhibition at 1 µM was 8%.

What about the inhibition at 1 µM (RPS6KA3) of the same compound?
Its inhibition at 1 µM is 1%.

What about the inhibition at 1 µM (WNK3) of the same compound?
Its inhibition at 1 µM is -6%.

And the inhibition at 1 µM (NIK)?
Its inhibition at 1 µM is -2%.

What about the inhibition at 1 µM (PKMzeta) of the same compound?
The inhibition at 1 µM was 12%.

What about the inhibition at 1 µM (BUB1B) of the same compound?
The inhibition at 1 µM was 13%.

What about the inhibition at 1 µM (LCK) of the same compound?
The inhibition at 1 µM was -3%.

What about the inhibition at 1 µM (MET) of the same compound?
The inhibition at 1 µM was 0%.

What about the inhibition at 1 µM (AKT1) of the same compound?
Its inhibition at 1 µM is 2%.

What about the inhibition at 1 µM (PRKD2) of the same compound?
The inhibition at 1 µM was 12%.

What about the inhibition at 1 µM (BLK) of the same compound?
The inhibition at 1 µM was -2%.

What about the inhibition at 1 µM (p38gamma) of the same compound?
Its inhibition at 1 µM is 10%.

And the inhibition at 1 µM (HRI)?
Its inhibition at 1 µM is -8%.

What about the inhibition at 1 µM (CAMKK2) of the same compound?
Its inhibition at 1 µM is 9%.

And the inhibition at 1 µM (COT)?
The inhibition at 1 µM was 6%.

What about the inhibition at 1 µM (DYRK1A) of the same compound?
The inhibition at 1 µM was 7%.

Reference: patent US20230074545A1, “TREATMENT OF CANCER WITH CDK12/13 INHIBITORS” (Kinnate Biopharma Inc., priority 2019, published 2023)
